26 compounds from ChEMBL document CHEMBL5143708, “New antimalarials identified by a cell-based phenotypic approach: Structure-activity relationships of 2,3,4,9-tetrahydro-1H-β-carboline derivatives possessing a 2-((coumarin-5-yl)oxy)alkanoyl moiety” (Bioorg Med Chem, 2022) can be followed below.

Data set [1] is described as follows: Cytotoxicity against human HL-60 cells assessed as reduction in cell viability after 48 hrs by Cell Count Reagent SF based assay. It counts as toxicity.
Data set [2] deals with Plasmodium falciparum. Put plainly: Antiplasmodial activity against Plasmodium falciparum 3D7 infected in human RBC assessed as reduction in parasite growth after 72 hrs by LDH assay. Type of data set: functional, organism-based. The following applies: 3D7, Erythrocyte.
Data set [3] deals with Plasmodium falciparum. In words: Antiplasmodial activity against chloroquine-resistant Plasmodium falciparum K1 infected in human RBC assessed as reduction in parasite growth after 72 hrs by LDH assay. It counts as functional, organism-based. The following applies: K1, Erythrocyte.
For data set [4], the system named is Plasmodium falciparum. In words: Antiplasmodial activity against chloroquine-resistant Plasmodium falciparum Dd2 infected in human RBC assessed as reduction in parasite growth after 72 hrs by LDH assay. It counts as functional, organism-based. The following applies: Dd2, Erythrocyte.
Data set [5] deals with Plasmodium berghei. In words: Antimalarial activity against Plasmodium berghei ANKA infected in ICR mouse assessed as increase in body weight at 200 mg/kg, ip administered for 4 to 7 days after post-infection and measured on day 11 post-infection by Giemsa staining based microscopic analysis. Type of data set: functional, organism-based. The following applies: time 8.0 day.

The subject of data set [6] is Plasmodium berghei. In words: Antimalarial activity against Plasmodium berghei ANKA infected in ICR mouse assessed as increase in survival at 40 mg/kg, ip administered for 4 to 7 days after post-infection and measured on day 11 post-infection by Giemsa staining based microscopic analysis. It counts as functional, organism-based. The following applies: time 8.0 day.

In data set [7] the test system is Plasmodium berghei. Put plainly: Antimalarial activity against Plasmodium berghei ANKA infected in ICR mouse assessed as reduction in parasitemia level at 40 to 200 mg/kg, ip administered for 4 to 7 days after post-infection by Giemsa staining based microscopic analysis. The following applies: dose 40-200 mg/kg, time 4-7 day. Type of data set: functional, organism-based.

The nature of data set [8]: Half life in ICR mouse at 40 mg/kg, ip. It counts as ADME, organism-based. The following applies: in vivo.
In data set [9] the test system is Plasmodium berghei. Put plainly: Antimalarial activity against Plasmodium berghei ANKA infected in ICR mouse assessed as increase in survival at 200 mg/kg, ip administered for 4 to 7 days after post-infection and measured on day 19 post-infection by Giemsa staining based microscopic analysis. Type of data set: functional, organism-based. The following applies: time 16.0 day.

Data set [10] is described as follows: Cmax in ICR mouse at 40 mg/kg, ip. It counts as ADME, organism-based. Details: dose 40 mg/kg, route ip. The following applies: in vivo.
Data set [11] is described as follows: Toxicity in ICR mouse infected with Plasmodium berghei ANKA assessed as decrease in body weight at 200 mg/kg, ip administered for 4 to 7 days after post-infection and measured on day 18 post-infection by Giemsa staining based microscopic analysis. The following applies: in vivo, 360 h, time 15 day. It counts as organism-based.
Data set [12] can be described thus: Tmax in ICR mouse at 40 mg/kg, ip. Type of data set: ADME, organism-based. The following applies: in vivo.
The nature of data set [13]: Toxicity in ICR mouse infected with Plasmodium berghei ANKA assessed as decrease in body weight at 200 mg/kg, ip administered for 4 to 7 days after post-infection by Giemsa staining based microscopic analysis. The following applies: in vivo, time 4-7 day. It counts as organism-based.
Data set [14] has as its system Plasmodium berghei. In words: Antimalarial activity against Plasmodium berghei ANKA infected in ICR mouse assessed as increase in body weight at 40 mg/kg, ip administered for 4 to 7 days after post-infection by Giemsa staining based microscopic analysis. It counts as functional, organism-based. The following applies: time 4-7 day.
A short description of data set [15]: AUC in ICR mouse at 40 mg/kg, ip. Type of data set: ADME, organism-based. Details: dose 40 mg/kg, route ip. The following applies: in vivo.

Molecules are shown by their SMILES. Calls of active or inactive are those of the source. The rule behind the calls is not given here.

`CCc1cc(=O)oc2cc(C)cc(O[C@H](C)C(=O)N3Cc4[nH]c5ccccc5c4C[C@H]3C(=O)OC)c12`: the 50% inhibitory concentration (IC50) at 48 h in data set [1] was more than 3000 nM. Also, in the data set on Plasmodium falciparum [2], the IC50 is 11 nM.

As for `CCCCc1coc2cc(C)cc(O[C@H](C)C(=O)N3Cc4[nH]c5ccccc5c4C[C@H]3C(=O)OC)c12`, the half-inhibitory concentration (IC50) at 48 h in data set [1] was more than 3000 nM. In addition, in the data set with Plasmodium falciparum [2], the IC50 is 220 nM.

`CCCCc1cc(=O)oc2cc(C)cc(O[C@H](C)C(=O)N3Cc4[nH]c5ccc(F)cc5c4C[C@H]3C(=O)OC)c12`: in data set [1], the IC50 at 48 h was more than 3000 nM. The IC50 in the data set with Plasmodium falciparum [2] worked out at 5.5 nM.

For the compound `CCCCc1cc(=O)oc2cc(C)cc(OC(CCC)C(=O)N3Cc4[nH]c5ccccc5c4C[C@H]3C(=O)OC)c12` (some centres undefined), the IC50 at 48 h in [1] is more than 3000 nM. Besides, the IC50 with Plasmodium falciparum [2] amounted to 5.9 nM.

With `CCCCc1cc(=O)oc2cc(C)cc(OCC(=O)N3Cc4[nH]c5ccccc5c4C[C@@H]3C(=O)OC)c12`, the IC50 at 48 h in data set [1] was more than 3000 nM. Moreover, the half-inhibitory concentration (IC50) in the data set on Plasmodium falciparum [2] came out at 980 nM.

Turning to `CCCCc1cc(=O)oc2cc(C)cc(O[C@@H](C)C(=O)N3Cc4[nH]c5ccccc5c4C[C@H]3C(=O)OC)c12`, the 50% inhibitory concentration (IC50) at 48 h in data set [1] is more than 3000 nM. The IC50 in the data set on Plasmodium falciparum [2] stood at 190 nM.

As for `CCCCc1coc2cc(C)cc(O[C@H](C)C(=O)N3Cc4[nH]c5ccccc5c4C[C@H]3C#N)c12`, in data set [1], the IC50 at 48 h was more than 3000 nM. For the same compound, the IC50 with Plasmodium falciparum [2] worked out at 110 nM.

As to `CCCCc1cc(=O)oc2cc(C)cc(O[C@H](C)C(=O)N3Cc4[nH]c5ccccc5c4C[C@H]3C(C)=O)c12`, in data set [1], the IC50 at 48 h is more than 3000 nM. Moreover, the half-maximal inhibitory concentration (IC50) in the data set on Plasmodium falciparum [2] worked out at 5.6 nM.

For `CCCCc1cc(=O)oc2cc(C)cc(OC(C)C(=O)N3Cc4[nH]c5ccccc5c4C[C@H]3C(=O)OC)c12` (some centres undefined), the half-maximal inhibitory concentration (IC50) at 48 h in [1] was more than 3000 nM. For the same compound, the concentration for half-maximal inhibition (IC50) in the data set with Plasmodium falciparum [2] was determined as 6.8 nM.

On to `CCCCc1cc(=O)oc2cc(C)cc(O[C@H](C)C(=O)N[C@@H](Cc3c[nH]c4ccccc34)C(=O)OC)c12`, for which the 50% inhibitory concentration (IC50) at 48 h in data set [1] was more than 3000 nM. In addition, in the data set with Plasmodium falciparum [2], the IC50 was determined as 55 nM.

Turning to `CCCCc1cc(=O)oc2cc(C)cc(OC(CC)C(=O)N3Cc4[nH]c5ccccc5c4C[C@H]3C(=O)OC)c12` (some centres undefined), in [1], the IC50 at 48 h is more than 3000 nM. Moreover, in the data set with Plasmodium falciparum [2], the half-maximal inhibitory concentration (IC50) was 7 nM.

With `COC(=O)[C@@H]1Cc2c([nH]c3ccccc23)CN1C(=O)[C@@H](C)Oc1cc(C)cc2oc(=O)cc(C)c12`, in data set [1], the 50% inhibitory concentration (IC50) at 48 h is more than 3000 nM. Moreover, the concentration for half-maximal inhibition (IC50) with Plasmodium falciparum [2] amounted to 40 nM.

Take `CCCc1cc(=O)oc2cc(C)cc(O[C@H](C)C(=O)N3Cc4[nH]c5ccccc5c4C[C@H]3C(=O)OC)c12`: the IC50 at 48 h in data set [1] is more than 3000 nM. Further, the IC50 is 1.9 nM in the data set with Plasmodium falciparum [2], 1.9 nM in the data set with Plasmodium falciparum [3] and 2.1 nM in the data set on Plasmodium falciparum [4].

Consider `CCCCc1cc(=O)oc2cc(C)cc(OCC(=O)N3Cc4[nH]c5ccccc5c4C[C@H]3C(=O)OC)c12`, for which the IC50 at 48 h in data set [1] is more than 3000 nM. Further, the values for the 50% inhibitory concentration (IC50) with Plasmodium falciparum [2], in the data set with Plasmodium falciparum [3] and in the data set on Plasmodium falciparum [4] were 20 nM, 20 nM and 24 nM, respectively.

Take `CCCCc1cc(=O)oc2cc(C)cc(OC(C(=O)N3Cc4[nH]c5ccccc5c4C[C@H]3C(=O)OC)C(C)C)c12` (some centres undefined): in data set [1], the IC50 at 48 h was more than 3000 nM. Moreover, the IC50 in the data set on Plasmodium falciparum [2] is 6.4 nM.

Turning to `CCCCc1cc(=O)oc2cccc(O[C@H](C)C(=O)N3Cc4[nH]c5ccccc5c4C[C@H]3C(=O)OC)c12`, the IC50 at 48 h in data set [1] is more than 3000 nM. In the data set with Plasmodium falciparum [2], the IC50 stood at 4.1 nM.

`CCCCc1cc(=O)oc2cc(Br)cc(O[C@H](C)C(=O)N3Cc4[nH]c5ccccc5c4C[C@H]3C(=O)OC)c12`: the concentration for half-maximal inhibition (IC50) at 48 h in [1] was more than 3000 nM. The IC50 with Plasmodium falciparum [2] stood at 9.6 nM.

Regarding `CCCCc1cc(=O)oc2cc(C)cc(O[C@H](C)C(=O)N3CCc4c([nH]c5ccccc45)C3)c12`, the half-inhibitory concentration (IC50) at 48 h in [1] was more than 3000 nM. The IC50 with Plasmodium falciparum [2] is 72 nM.

On to `CCCCC(=O)c1c(OC)cc(C)cc1O[C@H](C)C(=O)N1Cc2[nH]c3ccccc3c2C[C@H]1C(=O)OC`, for which the IC50 at 48 h in [1] is more than 3000 nM. In the data set with Plasmodium falciparum [2], the IC50 was 2400 nM.

Turning to `CCCCc1cc(=O)oc2cc(C)cc(O[C@H](C)C(=O)N3Cc4[nH]c5ccccc5c4C[C@H]3C(=O)OC)c12`, the result in the data set with Plasmodium berghei [5], with Plasmodium berghei [6], in the data set with Plasmodium berghei [7], with Plasmodium berghei [9] and in the data set with Plasmodium berghei [14] was Active. Moreover, in [1], the 50% inhibitory concentration (IC50) at 48 h is more than 3000 nM. The IC50 in the data set with Plasmodium falciparum [2] came to 2 nM; in the data set on Plasmodium falciparum [3], 2.6 nM; with Plasmodium falciparum [4], 2.2 nM. In data set [8], the half-life was 2.14 h. The peak level in data set [10] (Cmax) was 7120 ng/mL. Besides, the Activity result in data set [11] and in data set [13] was “Toxic” throughout. In addition, the Tmax in data set [12] turned out to be 2 h. This compound had an AUC in [15] of 25600 ng·h/mL.

Consider `CCCCc1cc(=O)oc2cc(C)cc(OCC(=O)N3Cc4[nH]c5ccccc5c4C[C@H]3C(=O)NC)c12`, for which the IC50 at 48 h in [1] is more than 3000 nM. Also, the IC50 in the data set on Plasmodium falciparum [2] is more than 3000 nM.

As for `CCCCc1cc(=O)oc2cc(C)cc(OC(CCCC)C(=O)N3Cc4[nH]c5ccccc5c4C[C@H]3C(=O)OC)c12` (some centres undefined), the IC50 at 48 h in [1] was more than 3000 nM. Also, the IC50 in the data set with Plasmodium falciparum [2] is 10 nM.

Regarding `CCCCc1cc(=O)oc2cc(N3CCOCC3)cc(O[C@H](C)C(=O)N3Cc4[nH]c5ccccc5c4C[C@H]3C(=O)OC)c12`, the IC50 at 48 h in data set [1] was more than 3000 nM. For the same compound, the half-maximal inhibitory concentration (IC50) with Plasmodium falciparum [2] is 210 nM.

Turning to `CCCCc1cc(=O)oc2cc(C)cc(O[C@H](C)C(=O)N3Cc4[nH]c5ccccc5c4C[C@H]3C(=O)OCC)c12`, the 50% inhibitory concentration (IC50) at 48 h in data set [1] was more than 3000 nM. The IC50 with Plasmodium falciparum [2] was 55 nM.

For `CCCCc1cc(=O)oc2cc(C)cc(O[C@H](C)C(=O)N3Cc4[nH]c5ccccc5c4C[C@H]3C#N)c12`, the IC50 at 48 h in [1] was more than 3000 nM. Besides, in the data set on Plasmodium falciparum [2], the half-inhibitory concentration (IC50) came to 4.1 nM.

In the case of `COC(=O)[C@@H]1Cc2c([nH]c3ccccc23)CN1C(=O)[C@@H](C)Oc1cc(C)cc2oc(=O)cc(CC3CC3)c12`, the half-maximal inhibitory concentration (IC50) at 48 h in data set [1] is more than 3000 nM. The IC50 in the data set on Plasmodium falciparum [2] stood at 3.5 nM.
